# Source: publication PMC11271967, “An inhibitory mechanism of AasS, an exogenous fatty acid scavenger: Implications for re-sensitization of FAS II antimicrobials” (PLOS Pathogens, 2024)
# How the values were obtained:
# [1] = biological target: AasS (Vibrio harveyi, UniProt Q00IB3); assay: Michaelis-Menten curves of AasS reaction with C10-AMS supplemented; format: biochemical
# Protocol: To ascertain this hypothesis, we set up three combinations of AasS reaction with the varied order of C10-AMS inhibitor added in relative to C10 substrate. Namely, these included (i) addition of C10-AMS after C10 pre-incubation (S1B Fig), (ii) simultaneous addition of C10-AMS and C10 (S1C Fig), and (iii) supplementation of C10-AMS prior to C10 (S1D Fig). […] Next, we generated Michaelis-Menten curves of AasS enzyme to evaluate the inhibitory pattern of C10-AMS against ATP cofactor and C10 acyl substrate (S2 Fig).
# Supplementary file ppat.1012376.s004.tif: S2 Fig Use of Michaelis-Menten curves to evaluate inhibition mode of AasS by the C10-AMS molecule. Michaelis-Menten curves of AasS reaction for the ATP cofactor (A) and C10 acyl substrate (C), on the condition of C10-AMS inhibitor supplemented at varied concentrations. C10-AMS was added at different level (ranging from 0, 125, 250, to 500 nM). Based on the dogma of Michaelis-Menten equation, a number of crosspoints of two vertically-intersecting dashed-lines (indicated with arrows) were given to determine the values of Km and Vmax. Of note, the coordinate (x,y) of the resultant crosspoint denotes the number (Km, Vmax /2). The values of Km and Vmax for AasS inhibited by C10-AMS in relative to ATP cofactor (B) and C10 substrate (D). […] Designations: Km, Michaelis constant; Vmax, Maximum velocity. (TIF)
# [2] = system: AasS-expressing E. coli ΔbioC strain; assay: AasS-based bypass of biotin synthesis, bacterial viability on M9 agar; format: cell-based, Escherichia coli; conditions: M9 agar with E-C7 as sole carbon source; 0, 50, 100, 500 μM tested
# Excerpt: Fig 4 Integrated evidence for the inhibition of AasS action with E-C7 fatty acid by C10-AMS compound. A. Schematic diagram of AasS-catalyzed ligation of E-C7 with holo-ACP recipient to produce E-C7-ACP. […] A representative photograph of three independent trials was given. C. Relatively-quantitative analysis (for the inhibitory efficacy of C10-AMS on AasS-catalyzed E-C7-ACP production. As for AasS reaction (panel B), unlike the three components that are at constant levels, namely (i) AasS (31.25 nM), (ii) E-C7 (600 μM), and (iii) ACP (3 μg), C10-AMS inhibitor was supplemented at varied ratio in relative to the AasS enzyme (ranging from 0:1, 25:1, 50:1, 100:1, 200:1, 300:1, 400:1, to 500:1). The ImageJ software was applied to measure the relative percentage (%) of E-C7 fatty acylation in each AasS reaction. The resultant graphs were plotted from three independent experiments, in which the output was expressed as means ± SD (standard deviations). D. Schematic diagram for C10-AMS inhibition of AasS-based bypass of biotin requirement by the E. coli ΔbioC biotin auxotroph on the non-permissive condition. […] Log-phase cultures in a series of 10-fold dilution (shown in panel on right hand), were spotted on the x-gal-containing M9 agar plates supplemented with C10-AMS inhibitor at varied levels (0, 50, 100, to 500 μM). The addition of x-gal substrate enabled the occurrence of blue colonies for better photographing, and viable colonies were highlighted with yellow arrows.
# Given that AasS ligates E-C7 fatty acid with holo-ACP, giving E-C7-ACP, an alternative precursor for bacterial biotin synthesis, plasmid-borne aasS expression in ΔbioC biotin auxotroph strain is assumed to overcome the requirement of the primary BioC step [58, 83]. Apart from its WT, three single mutants of AasS (D411A, R426A, and K432A) were examined in vivo, of which the compromised activity is presumably proportional to the varied viability of the ΔbioC reporter strains on the non-permissive M9 growth condition. To test its inhibitory effect, the C10-AMS inhibitor in a series of dilution was supplemented. […]
# [3] = increasing C10-AMS while varying ATP
# Sequence of AasS (Q00IB3 entry or part of it): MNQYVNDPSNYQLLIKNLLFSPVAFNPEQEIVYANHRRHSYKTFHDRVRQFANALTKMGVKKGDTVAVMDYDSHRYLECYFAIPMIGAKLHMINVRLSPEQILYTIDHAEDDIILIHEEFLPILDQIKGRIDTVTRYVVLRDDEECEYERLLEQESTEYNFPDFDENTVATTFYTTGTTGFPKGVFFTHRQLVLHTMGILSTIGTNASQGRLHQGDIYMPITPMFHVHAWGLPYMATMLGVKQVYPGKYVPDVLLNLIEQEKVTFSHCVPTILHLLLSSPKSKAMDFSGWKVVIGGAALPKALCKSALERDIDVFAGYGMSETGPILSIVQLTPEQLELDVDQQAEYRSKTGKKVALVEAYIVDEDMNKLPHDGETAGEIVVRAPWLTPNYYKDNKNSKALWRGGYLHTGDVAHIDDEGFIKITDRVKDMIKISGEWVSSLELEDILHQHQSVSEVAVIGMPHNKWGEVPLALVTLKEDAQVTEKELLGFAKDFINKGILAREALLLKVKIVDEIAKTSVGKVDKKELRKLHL
compound,measurement,setting,value
CCCCCCCCCC(=O)NS(=O)(=O)OC[C@H]1O[C@@H](n2cnc3c(N)ncnc32)[C@H](O)[C@@H]1O [C10-AMS],"AasS reaction rate, Michaelis-Menten curve for ATP, Average","[1]; 125 nM C10-AMS, ATP 0.125 (unit not given)",0.1701
same,"AasS reaction rate, Michaelis-Menten curve for ATP, Average","[1]; 125 nM C10-AMS, ATP 0.25",0.2829
same,"AasS reaction rate, Michaelis-Menten curve for ATP, Average","[1]; 125 nM C10-AMS, ATP 0.5",0.452
same,"AasS reaction rate, Michaelis-Menten curve for ATP, Average","[1]; 125 nM C10-AMS, ATP 1",0.6373
same,"AasS reaction rate, Michaelis-Menten curve for ATP, Average","[1]; 125 nM C10-AMS, ATP 2",0.8268
same,"AasS reaction rate, Michaelis-Menten curve for C10 acyl substrate, Average","[1]; 125 nM C10-AMS, C10 5 (unit not given)",0.6857
same,"AasS reaction rate, Michaelis-Menten curve for C10 acyl substrate, Average","[1]; 125 nM C10-AMS, C10 10",0.7781
same,"AasS reaction rate, Michaelis-Menten curve for C10 acyl substrate, Average","[1]; 125 nM C10-AMS, C10 20",0.8956
same,"AasS reaction rate, Michaelis-Menten curve for C10 acyl substrate, Average","[1]; 125 nM C10-AMS, C10 40",0.924
same,"AasS reaction rate, Michaelis-Menten curve for ATP, Average","[1]; 250 nM C10-AMS, ATP 0.125 (unit not given)",0.1042
same,"AasS reaction rate, Michaelis-Menten curve for ATP, Average","[1]; 250 nM C10-AMS, ATP 0.25",0.1505
same,"AasS reaction rate, Michaelis-Menten curve for ATP, Average","[1]; 250 nM C10-AMS, ATP 0.5",0.2695
same,"AasS reaction rate, Michaelis-Menten curve for ATP, Average","[1]; 250 nM C10-AMS, ATP 1",0.5022
same,"AasS reaction rate, Michaelis-Menten curve for ATP, Average","[1]; 250 nM C10-AMS, ATP 2",0.6244
same,"AasS reaction rate, Michaelis-Menten curve for C10 acyl substrate, Average","[1]; 250 nM C10-AMS, C10 5 (unit not given)",0.3359
same,"AasS reaction rate, Michaelis-Menten curve for C10 acyl substrate, Average","[1]; 250 nM C10-AMS, C10 10",0.4164
same,"AasS reaction rate, Michaelis-Menten curve for C10 acyl substrate, Average","[1]; 250 nM C10-AMS, C10 20",0.4772
same,"AasS reaction rate, Michaelis-Menten curve for C10 acyl substrate, Average","[1]; 250 nM C10-AMS, C10 40",0.4877
same,"AasS reaction rate, Michaelis-Menten curve for ATP, Average","[1]; 500 nM C10-AMS, ATP 0.125 (unit not given)",0.0721
same,"AasS reaction rate, Michaelis-Menten curve for ATP, Average","[1]; 500 nM C10-AMS, ATP 0.25",0.08914
same,"AasS reaction rate, Michaelis-Menten curve for ATP, Average","[1]; 500 nM C10-AMS, ATP 0.5",0.1634
same,"AasS reaction rate, Michaelis-Menten curve for ATP, Average","[1]; 500 nM C10-AMS, ATP 1",0.2728
same,"AasS reaction rate, Michaelis-Menten curve for ATP, Average","[1]; 500 nM C10-AMS, ATP 2",0.3695
same,"AasS reaction rate, Michaelis-Menten curve for C10 acyl substrate, Average","[1]; 500 nM C10-AMS, C10 5 (unit not given)",0.2278
same,"AasS reaction rate, Michaelis-Menten curve for C10 acyl substrate, Average","[1]; 500 nM C10-AMS, C10 10",0.2903
same,"AasS reaction rate, Michaelis-Menten curve for C10 acyl substrate, Average","[1]; 500 nM C10-AMS, C10 20",0.3259
same,"AasS reaction rate, Michaelis-Menten curve for C10 acyl substrate, Average","[1]; 500 nM C10-AMS, C10 40",0.3858
same,change of Michaelis constant (Km) of AasS,[1]; [3],increase
same,change of maximum velocity (Vmax) of AasS,[1]; [3],declined
same,mode of inhibition against ATP ligand,"[1]; varying ATP, C10-AMS 0-500 nM",mixed inhibition
same,inhibitory pattern for the C10 acyl substrate,"[1]; varying C10, C10-AMS 0-500 nM",mixed type of inhibition
same,C10-AMS level that markedly impaired AasS-based bypass of biotin synthesis,[2],over 100 μM
